Results on 24 molecules are retold here after patent publication US20080119515A1, “Heterocyclic Kinase Inhibitors: Methods of Use and Synthesis” (priority 2003, published 2008).

This experiment has as its target T1, ZAP-70 (Homo sapiens, UniProt P43403).
T1 sequence (P43403 1-619): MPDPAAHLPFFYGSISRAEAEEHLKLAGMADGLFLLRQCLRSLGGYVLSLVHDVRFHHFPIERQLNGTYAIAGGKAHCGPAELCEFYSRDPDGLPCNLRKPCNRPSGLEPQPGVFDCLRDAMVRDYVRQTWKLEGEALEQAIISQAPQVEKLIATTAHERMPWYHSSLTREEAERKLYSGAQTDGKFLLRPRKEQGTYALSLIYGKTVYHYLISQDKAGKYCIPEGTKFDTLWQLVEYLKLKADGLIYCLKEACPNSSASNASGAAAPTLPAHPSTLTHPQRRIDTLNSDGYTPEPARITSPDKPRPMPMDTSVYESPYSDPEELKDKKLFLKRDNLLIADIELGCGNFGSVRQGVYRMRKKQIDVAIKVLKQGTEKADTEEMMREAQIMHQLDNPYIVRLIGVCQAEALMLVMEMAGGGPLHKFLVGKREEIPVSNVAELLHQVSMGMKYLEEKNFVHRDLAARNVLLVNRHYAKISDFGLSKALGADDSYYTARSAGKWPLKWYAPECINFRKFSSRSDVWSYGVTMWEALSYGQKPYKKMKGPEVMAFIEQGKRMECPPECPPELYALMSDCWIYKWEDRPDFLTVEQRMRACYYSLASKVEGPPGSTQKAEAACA
In words: DELFIA assay (ZAP-70 kinase, phosphorylation of biotinylated poly(glu,tyr)). Type of experiment: biochemical. The conditions noted are these: ZAP-70 DELFIA, class symbols; read-out: Activity (IC50 in vitro). An outline of the steps:
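3.1 nM ZAP-70 pre-incubated 10 min at room temperature with compound ([…]) and 62.5 nM biotinylated poly(glu,tyr) in 62.5 mM Mops pH 7.0, 12.5 mM MgCl2, 12.5% glycerol, 6.25% DMSO (pre-incubation concentrations); ATP added from 5 mM stock, 30 min reaction, EDTA stop. Phosphorylation read by DELFIA europium anti-phosphotyrosine fluorescence (340/615).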

SMILES strings stand for the structures.

As to `C[C@H]1CCN(C(=O)c2cc(NCc3ccc(Cl)cc3)nc3ccc(-c4ccc5c(c4)OCO5)cc23)[C@@H]1CN1CCCC1` [Compound 148], the IC50 fell in the range of 1 to 10 µM.

Regarding `O=C(c1cc(NCc2ccc(C(F)(F)F)cc2)nc2ccc(-c3ccc4c(c3)OCO4)cc12)N1CC[C@H]1CN1CCCC1` [Compound 149], the IC50 fell in the range of 1 to 10 µM. Take `CN(Cc1ccccc1)c1cc(C(=O)N2CCC[C@H]2CN2CCCC2)c2cc(-c3ccc(C#N)cc3)ccc2n1` [Compound 150]: the IC50 was above 10 µM. On to `COc1ccccc1CNc1cc(C(=O)N2CCC[C@H]2CN2CCCC2)c2cc(-c3ccc(C#N)cc3)ccc2n1` [Compound 151], for which the IC50 is above 10 µM.

With `COc1ccc(CNc2cc(C(=O)N3CCC[C@H]3CN3CCCC3)c3cc(-c4ccc(C#N)cc4)ccc3n2)cc1` [Compound 152], the IC50 is above 10 µM. Take `N#Cc1ccc(-c2ccc3nc(N4CCc5ccccc5C4)cc(C(=O)N4CCC[C@H]4CN4CCCC4)c3c2)cc1` [Compound 153]: the IC50 is above 10 µM. Regarding `N#Cc1ccc(-c2ccc3nc(NCc4ccccc4)cc(C(=O)N4CCC[C@H]4CN4CCCC4)c3c2)cc1` [Compound 154], the IC50 was above 10 µM. `N#Cc1ccc(-c2ccc3nc(NC4Cc5ccccc5C4)cc(C(=O)N4CCC[C@H]4CN4CCCC4)c3c2)cc1` [Compound 155]: the IC50 was above 10 µM. Regarding `N#Cc1ccc(-c2ccc3nc(NCCc4ccccc4Cl)cc(C(=O)N4CCC[C@H]4CN4CCCC4)c3c2)cc1` [Compound 156], the IC50 is above 10 µM.

On to `N#Cc1ccc(-c2ccc3nc(NCc4cccc(C(F)(F)F)c4)cc(C(=O)N4CCC[C@H]4CN4CCCC4)c3c2)cc1` [Compound 157], for which the IC50 was above 10 µM.

With `N#Cc1ccc(-c2ccc3nc(NCc4ccccc4F)cc(C(=O)N4CCC[C@H]4CN4CCCC4)c3c2)cc1` [Compound 158], the IC50 was above 10 µM. As to `N#Cc1ccc(-c2ccc3nc(NCc4ccc(F)cc4)cc(C(=O)N4CCC[C@H]4CN4CCCC4)c3c2)cc1` [Compound 159], the IC50 is above 10 µM. As for `COc1cccc(CNc2cc(C(=O)N3CCC[C@H]3CN3CCCC3)c3cc(-c4ccc(C#N)cc4)ccc3n2)c1` [Compound 160], the IC50 is above 10 µM.

As for `N#Cc1ccc(-c2ccc3nc(NCc4cccc(F)c4)cc(C(=O)N4CCC[C@H]4CN4CCCC4)c3c2)cc1` [Compound 161], the IC50 was above 10 µM.

On to `N#Cc1ccc(-c2ccc3nc(NCc4ccc(F)c(F)c4)cc(C(=O)N4CCC[C@H]4CN4CCCC4)c3c2)cc1` [Compound 162], for which the concentration for half-maximal inhibition (IC50) is above 10 µM. As for `N#Cc1ccc(-c2ccc3nc(NCc4cc(F)ccc4F)cc(C(=O)N4CCC[C@H]4CN4CCCC4)c3c2)cc1` [Compound 163], the figure is above 10 µM. `N#Cc1ccc(-c2ccc3nc(NCc4ccccc4C(F)(F)F)cc(C(=O)N4CCC[C@H]4CN4CCCC4)c3c2)cc1` [Compound 164]: the IC50 is above 10 µM. As to `N#Cc1ccc(-c2ccc3nc(NCc4cccc(Br)c4)cc(C(=O)N4CCC[C@H]4CN4CCCC4)c3c2)cc1` [Compound 165], the IC50 was above 10 µM. As for `N#Cc1ccc(-c2ccc3nc(NCc4ccc(Cl)cc4Cl)cc(C(=O)N4CCC[C@H]4CN4CCCC4)c3c2)cc1` [Compound 166], the figure is above 10 µM.

Turning to `N#Cc1ccc(-c2ccc3nc(NCc4cccc(Cl)c4)cc(C(=O)N4CCC[C@H]4CN4CCCC4)c3c2)cc1` [Compound 167], the 50% inhibitory concentration (IC50) was above 10 µM. As for `N#Cc1ccc(-c2ccc3nc(NCc4ccc(Cl)cc4)cc(C(=O)N4CCC[C@H]4CN4CCCC4)c3c2)cc1` [Compound 168], the figure is above 10 µM; as for `N#Cc1ccc(-c2ccc3nc(NCc4ccccc4Cl)cc(C(=O)N4CCC[C@H]4CN4CCCC4)c3c2)cc1` [Compound 169], above 10 µM; as for `N#Cc1ccc(-c2ccc3nc(NCCc4ccccc4)cc(C(=O)N4CCC[C@H]4CN4CCCC4)c3c2)cc1` [Compound 170], above 10 µM. For the molecule `CC[C@H](Nc1cc(C(=O)N2CCC[C@H]2CN2CCCC2)c2cc(-c3ccc(C#N)cc3)ccc2n1)c1ccccc1` [Compound 171], the IC50 is above 10 µM.

The IC50 is the concentration that inhibits the measured activity by half.
